The test system of test [1] is Pin1 and cell cycle proteins in LN95 cells. Put plainly: Western blot of Pin1 and cell cycle proteins in LN95 cells. To be noted: for CyclinA2 protein level (Fig. 6a) / CyclinB1 protein level (Fig. 6a) / CyclinD1 protein level (Fig. 6a) / Pin1 protein level (Fig. 6a) / p21 protein level (Fig. 6a) / p27 protein level (Fig. 6a): relative to 0 μM = 1, replicate experiments by date. For orientation: A western blot detects proteins with antibodies after separation by electrophoresis.
Description: Data shown are the means ± s.e.m. from 3–4 independent experiments. Statistical significance was determined by ANOVA using the Dunnett’s multiple comparisons test. *P < 0.05, **P < 0.01, ***P < 0.001.
For western blot analyses, membranes were blocked with 5% non-fat milk in phosphate-buffered saline containing 0.1% Tween-20 (PBS-T) and then incubated overnight at 4 °C with primary antibody (1:200–5000) in PBS-T containing 5% non-fat milk or 2% BSA. After incubation with the primary antibody, the membrane was washed three times with TBS-T, incubated with a horseradish peroxidase-conjugated antibody secondary antibody (1:5000–10,000) for 1–2 h at room temperature, and washed three times with PBS-T and two more times with PBS before chemiluminescence was detected with ECL Prime Reagent (GE Healthcare Life Science, Mississauga, ON). Western blot images were captured using the ChemiDoc MP Imaging System (Bio-Rad Laboratories, Hercules, CA) and quantified using ImageJ software.

A further test deals with serum PSA. As to the kind of experiment: Quantification of serum PSA (ELISA) in xenograft-bearing mice. In kind it is in vivo. To be noted: ATRA compared to placebo; on average; did not reach statistical significance. As for the experimental part: Serum levels for total PSA were measured by a PSA ELISA kit (Anogen, Mississauga, ON) with a lower limit sensitivity of ~1 ng/mL. Whole blood was sampled from the tail vein on days indicated or by cardiac puncture immediately after euthanasia. The serum fraction was separated by centrifugation at 12,000 rpm for 3 min at room temperature and then stored at −20 °C until further analysis. Serum samples were diluted tenfold for the assay and were compared to calibration standards, according to the manufacturer’s protocol. The concentration of total PSA was determined by a VersaMax ELISA microplate reader by measuring absorbance at 450 nm with a reference wavelength of 650 nm.
In general terms: An ELISA detects its analyte on a solid surface through an enzyme-linked reagent.

A further test concerns LNCaP cells. As to the kind of experiment: Senescence-associated β-galactosidase staining, LNCaP. The following applies: ATRA 10 µM, 3 days. Format: cell-based, human. The text has this:
Supplementary Figure 6. […] ( a)
Staining of senescence-associated β-galactosidase (SA β-gal) activity in cell lines treated with vehicle
Original magnification ×100.
percentage of β-gal positive cells as means ± s.e.m. from 3 independent experiments, where at least
1,000 cells were scored for each group. (c) Representative Western blot showing the indicated cell […]

Test [2] has as its target T1, human AR NTD (AR1–558) fused to Gal4DBD (Gal4-ARN) (Homo sapiens, UniProt P10275).
T1 construct: construct encoding the human AR1–558 of the NTD fused to a Gal4DBD (Gal4-ARN); expressed in transfected cells; host or cells: LNCaP
T1 sequence (P10275 1-558): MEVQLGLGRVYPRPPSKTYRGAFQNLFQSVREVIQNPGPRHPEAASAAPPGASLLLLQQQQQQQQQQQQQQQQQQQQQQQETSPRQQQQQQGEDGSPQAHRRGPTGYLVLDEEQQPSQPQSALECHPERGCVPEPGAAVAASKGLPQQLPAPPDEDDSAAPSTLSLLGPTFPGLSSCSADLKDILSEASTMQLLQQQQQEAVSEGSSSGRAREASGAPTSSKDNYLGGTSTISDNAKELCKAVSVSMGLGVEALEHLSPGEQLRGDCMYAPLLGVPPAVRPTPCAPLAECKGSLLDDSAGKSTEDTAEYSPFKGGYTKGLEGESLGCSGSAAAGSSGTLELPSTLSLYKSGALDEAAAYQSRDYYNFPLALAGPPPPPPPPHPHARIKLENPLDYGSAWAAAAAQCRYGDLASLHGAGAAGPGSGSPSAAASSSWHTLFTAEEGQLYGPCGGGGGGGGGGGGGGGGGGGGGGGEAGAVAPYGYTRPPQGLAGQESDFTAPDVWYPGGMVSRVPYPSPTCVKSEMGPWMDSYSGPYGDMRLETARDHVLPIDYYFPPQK
As to the kind of experiment: AR NTD transactivation assay (Gal4-ARN) in LNCaP cells. To be noted: EPI-002 25 μM, juglone 20 μM, ATRA 10 μM, 24 h. In kind it is cell-based. The text has this:
The remaining putative Pin1-binding sites are within the intrinsically disordered AR NTD that contains transcription activation units, Tau-1 and Tau-5, to mediate androgen-dependent and androgen-independent transactivation, respectively[5],[30]. The loss of AR-LBD shifts the location of transcriptional activity from Tau-1 with androgen, to Tau-5 in the absence of LBD[30].
Error bars show the mean ± s.e.m. *P < 0.05, **P < 0.01, ***P < 0.001; ns not significant.

Test [3] has as its target T2, AR interaction with STAT3 (Homo sapiens, UniProt P10275, T878A).
T2 construct: Endogenous STAT3 complexes were co-immunoprecipitated from LNCaP cells treated with juglone and IL-6; endogenous in cells; host or cells: LNCaP
Put plainly: Co-immunoprecipitation of AR with STAT3 from LNCaP cells. In kind it is cell-based. The following applies: juglone 30 μM, IL-6 50 ng/mL, 6 h. How it is done:
Fig. 3 Pin1 interacts with the AR NTD and regulates transactivation. a, b Transactivation assays performed in LNCaP cells expressing a vector encoding the human AR NTD fused to a Gal4 DNA-binding domain (Gal4-ARN). […] Input samples show Pin1 expression from lysates before the pull-down. i Co-immunoprecipitation assay showing AR protein co-immunoprecipitated with STAT3 from LNCaP cells incubated with EPI-002 (EPI, 35 μM), juglone (JUG, 30 μM), or vehicle (VEH, DMSO), and IL-6 (50 ng/mL) for 6 h. j, k Levels of phosphorylated MAPK (isoforms p44 and p42) and phosphorylated STAT3 (Tyr705 and Ser727) from LNCaP cells pre-treated with juglone (20 µM) and then stimulated with IL-6 (50 ng/mL) for 15 min. Error bars show the mean ± s.e.m. *P < 0.05, **P < 0.01, ***P < 0.001; ns not significant.

Another test addresses T3, YFP-AR fusion protein (Homo sapiens, UniProt P10275).
T3 construct: expressed in transfected cells; host or cells: LNCaP
Format: cell-based. As for the experimental part: Scores greater than 1 indicate nuclear localization. At least 50 cells were scored for each treatment.
AR translocation assays were performed by a modified protocol from Myung et al.[9]. Approximately 2.8 × 10^5 LNCaP cells were grown on coverslips in six-well plates and transiently transfected with 2 μg of an expression vector encoding a YFP-AR fusion protein. On the following day, cells were pre-treated with the indicated compounds for 1 h and stimulated with R1881 (1 nM) or a vehicle containing ethanol for 3 h. After incubating with compounds, cells were fixed with 4% paraformaldehyde, washed twice with PBS, and then counterstained with DAPI. Slides were examined on an Axiovert 200 Fluorescence Microscope (Zeiss, Oberkochen, Germany). The ratio of the YFP signal in the nucleus relative to the cytoplasm was quantified with ImageJ software. For each image, background fluorescence was measured and subtracted from experimental values. A total of at least 50 cells from nine images containing six or more cells per field were quantified to determine the nuclear to cytoplasmic YFP ratio for each treatment group.

The structures appear in SMILES notation. “And” between values parts separate entries of the source, which are not always exact repeats. Equal values may be shown once. “Also recorded” adds a separate entry of the source.

T3 sequence (P10275 whole entry, the tested form may be a part): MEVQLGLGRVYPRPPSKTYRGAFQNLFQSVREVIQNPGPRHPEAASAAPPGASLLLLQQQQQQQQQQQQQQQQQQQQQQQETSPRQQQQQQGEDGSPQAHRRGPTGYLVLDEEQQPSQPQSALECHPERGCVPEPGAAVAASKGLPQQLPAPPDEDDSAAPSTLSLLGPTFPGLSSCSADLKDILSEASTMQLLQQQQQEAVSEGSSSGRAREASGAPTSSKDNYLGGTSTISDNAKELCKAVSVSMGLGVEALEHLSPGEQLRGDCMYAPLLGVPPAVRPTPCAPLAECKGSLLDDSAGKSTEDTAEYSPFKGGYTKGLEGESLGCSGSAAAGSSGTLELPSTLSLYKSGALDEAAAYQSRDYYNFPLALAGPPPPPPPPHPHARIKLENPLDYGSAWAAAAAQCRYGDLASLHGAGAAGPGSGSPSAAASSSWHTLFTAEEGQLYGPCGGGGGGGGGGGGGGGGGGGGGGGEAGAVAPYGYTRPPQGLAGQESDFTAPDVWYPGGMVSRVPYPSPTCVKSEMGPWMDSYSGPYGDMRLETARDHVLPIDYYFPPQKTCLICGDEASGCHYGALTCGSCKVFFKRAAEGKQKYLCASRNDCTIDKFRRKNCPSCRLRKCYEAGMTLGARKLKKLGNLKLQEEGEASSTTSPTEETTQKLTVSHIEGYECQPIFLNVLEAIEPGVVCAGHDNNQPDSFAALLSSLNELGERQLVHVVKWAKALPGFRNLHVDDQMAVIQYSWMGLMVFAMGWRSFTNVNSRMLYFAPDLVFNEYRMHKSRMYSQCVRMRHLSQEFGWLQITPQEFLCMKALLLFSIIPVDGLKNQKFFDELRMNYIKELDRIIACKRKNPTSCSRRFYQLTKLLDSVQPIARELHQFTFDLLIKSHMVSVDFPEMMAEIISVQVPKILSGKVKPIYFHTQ
T2 sequence (P10275 whole entry T878A): as the sequence (P10275 whole entry, the tested form may be a part) above, with T878A counted along it

On to `CC1=C(/C=C/C(C)=C/C=C/C(C)=C/C(=O)O)C(C)(C)CCC1` [ATRA, all-trans retinoic acid], for which, in test [1] (1 μM), the “CyclinA2 protein level (Fig. 6a)” value is 1 and 0.69 and 0.64; the “CyclinB1 protein level (Fig. 6a)” value was 1.17 and 0.87 and 1.22; the “CyclinD1 protein level (Fig. 6a)” value was 0.71 and 0.24 and 0.7 and 0.33; the “Pin1 protein level (Fig. 6a)” value is 0.8 and 0.7 and 0.86 and 0.56. Further, in test [1] (1 μM), the “p21 protein level (Fig. 6a)” value was 1.19 and 0.73 and 1.3; the “p27 protein level (Fig. 6a)” value is 0.93 and 0.87 and 1.2. Besides, in test [1] (5 μM), the “CyclinA2 protein level (Fig. 6a)” value is 0.66 and 0.01 and 1.22; the “CyclinB1 protein level (Fig. 6a)” value was 0.9 and 0.62 and 1.39; the “CyclinD1 protein level (Fig. 6a)” value was 0.34 and 0.13 and 0.42 and 0.23; the “Pin1 protein level (Fig. 6a)” value was 0.63 and 0.26 and 0.56 and 0.35. For the same compound, in test [1] (5 μM), the “p21 protein level (Fig. 6a)” value was 0.81 and 0.2 and 1.37; the “p27 protein level (Fig. 6a)” value is 1.19 and 1.12 and 1.3. Further, in test [1] (10 μM), the “CyclinA2 protein level (Fig. 6a)” value is 0.13 and 0 and 0.23; the “CyclinB1 protein level (Fig. 6a)” value is 0.63 and 0.58 and 0.55; the “CyclinD1 protein level (Fig. 6a)” value is 0.01 and 0.35 and 0.23 and 0.05; the “Pin1 protein level (Fig. 6a)” value was 0.56 and 0.13 and 0.39 and 0.14. In test [1] (10 μM), the “p21 protein level (Fig. 6a)” value was 1.42 and 0.19 and 0.58; the “p27 protein level (Fig. 6a)” value is 1.39 and 2.2 and 1.28. The “effect on cellular Pin1 protein levels” value in test [1] (LN95, 0–10 µM) is “dose-dependent decrease in Pin1 levels”. Further, in test [1] (LN95, ATRA 0–10 µM), the “effect on expression of cyclins D1, A2, B1” value was “significantly decreased the expression of cyclin D1 and cyclin A2; also recorded: not cyclin B1”; the “effect on levels of CDK inhibitors p27Kip1 and p21Cip1” value was “selectively increased the levels of cyclin-dependent kinase (CDK) inhibitor p27^Kip1 but not p21^Cip1”. Further, in the test with serum PSA, the “reduction of PSA expression in sera, pilot study” value turned out to be 27%. Further, the “effect on percentage of SA β-gal-positive cells” value in the test on LNCaP cells is “significantly increased the percentage of SA β-gal-positive cells for LNCaP and LN95 cells”.

In the case of `O=C1C=CC(=O)c2c(O)cccc21` [juglone], the “effect on IL-6-induced transactivation of AR NTD (Gal4-ARN)” value in test [2] (IL-6 50 ng/mL) is given as “only inhibited IL-6-induced transactivation”. Moreover, the “effect on forskolin-induced transactivation of AR NTD (Gal4-ARN)” value in test [2] (forskolin 25 μM) is recorded as “only inhibited IL-6-induced transactivation”. Further, in test [3], the “reduction of the amount of AR interacting with STAT3” value is ~ 50%. Moreover, at YFP-AR fusion protein, the “YFP-AR localization, ratio of YFP intensity nucleus to cytosol (Fig. 2h), EtOH” value was 0.76 and 0.781 and 0.791; the “YFP-AR localization, ratio of YFP intensity nucleus to cytosol (Fig. 2h), R1881” value was 1.983 and 2.303 and 2.076.

The values above are taken from publication PMC7985297 (Communications Biology, 2021).
